Source: ChEMBL document CHEMBL1147240, “Lactones from the leaves of Litsea japonica and their anti-complement activity” (J Nat Prod, 2003)

Assay: Inhibition of human serum complement system-mediated hemolysis

## CC/C=C/CCCCCCCC/C=C/C1=CC(C)OC1=O (single isomer, unassigned) [LITSEALACTONE A]
  IC50: 787 µM

## C=C/C=C/CCCCCCCC/C=C/C1=C[C@H](C)OC1=O [AKOLACTONE B]
  IC50: 58 µM

## C#CCCCCCCCC/C=C/C1=C[C@H](C)OC1=O [HAMABIWALACTONE A]
  IC50: 714 µM

## C=CCCCCCCCC/C=C/C1=C[C@H](C)OC1=O [HAMABIWALACTONE B]
  IC50: 149 µM

## O=C(/C=C/c1ccc(O)c(O)c1)O[C@H](Cc1ccc(O)c(O)c1)C(=O)O [ROSMARINIC ACID]
  IC50: 180 µM
